Consider ten compounds from patent US8039500B2, “Fused heterocyclic compounds” (Takeda Pharmaceutical Company Limited, priority 2006, dated 2011).

Series [1] concerns the target T1, human CRF receptor (Homo sapiens, UniProt P34998).
T1 construct: expressed in transfected cells; host or cells: CHO cells (membrane fraction)
T1 sequence (P34998 24-415): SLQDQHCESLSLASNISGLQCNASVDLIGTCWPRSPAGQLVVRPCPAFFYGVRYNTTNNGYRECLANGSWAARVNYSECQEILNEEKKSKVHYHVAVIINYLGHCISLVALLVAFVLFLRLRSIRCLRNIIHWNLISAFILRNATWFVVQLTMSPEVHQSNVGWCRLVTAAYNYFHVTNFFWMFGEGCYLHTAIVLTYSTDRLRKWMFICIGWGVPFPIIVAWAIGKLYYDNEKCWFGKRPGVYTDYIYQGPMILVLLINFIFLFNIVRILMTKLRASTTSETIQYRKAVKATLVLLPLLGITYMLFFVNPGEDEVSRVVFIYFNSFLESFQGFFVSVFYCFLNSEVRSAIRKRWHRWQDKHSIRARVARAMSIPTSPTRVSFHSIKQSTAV
Kind of series: CRF binding inhibitory rate / receptor binding experiment with 125I-CRF. As to conditions: human CRF receptor expressing CHO cellular membrane fraction, 50 pM 125I-CRF (ovine CRF), room temperature 1.5 hr, 0.05 nM to 10 μM of compound; read-out: IC50 values (CRF binding inhibition). The method, then:
Measurement of CRF Binding Inhibitory Rate
A receptor binding experiment was carried out using a human CRF receptor expressing CHO cellular membrane fraction and ovine CRF, [^125I]-tyr^0(^125I-CRF). 1000 nM of a test compound was incubated with 1 μg of human CRF receptor expressing CHO cellular membrane fraction and 50 pM of ^125I-CRF in a binding assay buffer (50 mM Tris-HCl, 5 mM EDTA, 10 mM MgCl2, 0.05% CHAPS, 0.1% BSA, 0.5 mM PMSF, 0.1 μg/mL pepstatin, 20 μg/mL leupeptin, pH 7.5). In addition, for measuring nonspecific binding (NSB), 0.1 μM unlabelled human Urocortin was incubated with 5 μg of human CRF receptor expressing CHO cellular membrane fraction and 50 pM of ^125I-CRF in a binding assay buffer. After a binding reaction was carried out at room temperature for 1.5 hr, the membrane was entrapped on a glass filter (UniFilter plate GF-C/Perkin Elmer) by suction filtration using a cell harvester (Perkin Elmer), and washed with ice-cooled 50 mM Tris-HCl (pH 7.5). After drying the glass filter, a liquid scintillation cocktail (Microscinti 0, Perkin Elmer) was added, and the radioactivity of ^125I-CRF remaining on a glass filter was measured using Topcount (Perkin Elmer).
(TB-SB)/(TB-NSB)×100 (SB: radioactivity when a compound is added, TB: maximum binding radioactivity, NSB: nonspecific binding radioactivity) were calculated to obtain binding inhibitory rates under the range of the presence from 0.05 nM to 10 μM of each compound. The IC50 values were calculated by using GraphPad Prism software.

The term IC50 denotes the point on the concentration scale where inhibition reaches its midpoint. Take `CC=C(CC)c1cccc2nc(Cc3c(C)cc(C)cc3C)n(C)c12` (mixture of isomers) [Example 4, 7-[1-Ethylprop-1-en-1-yl]-2-(mesitylmethyl)-1-methyl-1H-benzimidazole]: the IC50 in series [1] was < 1000 nM.
`CCC(c1cccc2nc(Cc3c(Cl)cc(C(F)(F)F)cc3Cl)n(C)c12)C(C)OC(C)=O` (mixture of isomers) [Example 8, 2-{2-[2,6-Dichloro-4-(trifluoromethyl)benzyl]-1-methyl-1H-benzimidazol-7-yl}-1-methylbutyl acetate]: the IC50 in series [1] was < 1000 nM.
As to `CCN(CC)c1cccc2nc(Cc3c(C)cc(C)cc3C)n(C)c12` [Example 1, N,N-Diethyl-2-(mesitylmethyl)-1-methyl-1H-benzimidazol-7-amine], the IC50 in series [1] is < 1000 nM.
Broadly, the melting point is the temperature of the solid-liquid transition. Compound `CCN(CC)c1cccc2nc(Cc3c(Cl)cc(C(F)(F)F)cc3Cl)n(C)c12` [Example 2, 2-[2,6-Dichloro-4-(trifluoromethyl)benzyl]-N,N-diethyl-1-methyl-1H-benzimidazol-7-amine] registered a melting point of 150 to 151 °C. The IC50 in series [1] was < 1000 nM.
On to `CCC(O)(CC)c1cccc2nc(Cc3c(C)cc(C)cc3C)n(C)c12` [Example 3, 3-[2-(Mesitylmethyl)-1-methyl-1H-benzimidazol-7-yl]pentan-3-ol], for which the half-maximal inhibitory concentration (IC50) in series [1] is < 1000 nM.
`CCC(CC)c1cccc2nc(Cc3c(C)cc(C)cc3C)n(C)c12` [Example 5, 7-(1-Ethylpropyl)-2-(mesitylmethyl)-1-methyl-1H-benzimidazole]: the half-maximal inhibitory concentration (IC50) in series [1] was < 1000 nM.
Turning to `CCC(O)(CC)c1cccc2nc(Cc3c(Cl)cc(C(F)(F)F)cc3Cl)n(C)c12` [Example 6, 3-{2-[2,6-Dichloro-4-(trifluoromethyl)benzyl]-1-methyl-1H-benzimidazol-7-yl}pentan-3-ol], the IC50 in series [1] is < 1000 nM.
For the compound `CC=C(CC)c1cccc2nc(Cc3c(Cl)cc(C(F)(F)F)cc3Cl)n(C)c12` [Example 7, 2-[2,6-Dichloro-4-(trifluoromethyl)benzyl]-7-[1-ethylprop-1-en-1-yl]-1-methyl-1H-benzimidazole], in series [1], the IC50 is < 1000 nM.
With `CCC(c1cccc2nc(Cc3c(Cl)cc(C(F)(F)F)cc3Cl)n(C)c12)C(C)O` (stereo not drawn) [Example 9, 3-{2-[2,6-Dichloro-4-(trifluoromethyl)benzyl]-1-methyl-1H-benzimidazol-7-yl}pentan-2-ol], the half-inhibitory concentration (IC50) in series [1] was < 1000 nM.
Compound `CCC(CC)c1cccc2nc(C(O)c3c(C)cc(C)cc3C)n(C)c12` (stereo not drawn) [Example 10, [7-(1-Ethylpropyl)-1-methyl-1H-benzimidazol-2-yl](mesityl)methanol] showed a melting point of 132 to 134 °C. The IC50 in series [1] was < 1000 nM.
